Laboratory results as given in publication PMC8041433 (Environmental Health Perspectives, 2021).
Several values for one entry are separate records, joined by “and”; a condition that tells them apart may be missing. Equal values may be shown once. Where a name gives a salt, the structure may show the parent alone. Read-outs that look alike come from different tables or passages of the source.

Assays:
[1] = target: AChE in SH-SY5Y spheroids (Homo sapiens, UniProt P22303); assay: cell-based
[2] = target: AChE in neural stem cell spheroids (Homo sapiens, UniProt P22303); assay: cell-based; details: potency (IC50)
AChE in SH-SY5Y cells = AChE in SH-SY5Y cells (Homo sapiens, UniProt P22303); assay: cell-based
[3] = target: AChE in neural stem cells (Homo sapiens, UniProt P22303); assay: cell-based
recombinant human AChE [4] = target: T1, recombinant human AChE (Homo sapiens, UniProt P22303); assay: biochemical
recombinant human AChE [5] = target: T1, recombinant human AChE
recombinant human AChE [6] = target: T1, recombinant human AChE; assay: biochemical; remark: listed apart in the source
recombinant human AChE [7] = target: T1, recombinant human AChE; assay: biochemical; format: biochemical; details: for AC50: AC50 (uM)
recombinant human AChE [8] = target: T1, recombinant human AChE; assay: biochemical; remark: listed apart in the source
[9] = potency (IC50), SH-SY5Y spheroids (24 h)
[10] = Neural stem cell spheroid (24 h)
[11] = Neural stem cell spheroid (48 h)
[12] = potency (IC50), SH-SY5Y cells monolayer
[13] = potency (IC50), Enzyme with microsomes
[14] = potency (IC50), SH-SY5Y spheroids (48 h)
Wherever IR or R is given: key: Reversible (R); Irreversible (IR); ND, not detected in enzyme-based AChE inhibition assay from current study.

Chain of AChE in neural stem cell spheroids (P22303 32-614): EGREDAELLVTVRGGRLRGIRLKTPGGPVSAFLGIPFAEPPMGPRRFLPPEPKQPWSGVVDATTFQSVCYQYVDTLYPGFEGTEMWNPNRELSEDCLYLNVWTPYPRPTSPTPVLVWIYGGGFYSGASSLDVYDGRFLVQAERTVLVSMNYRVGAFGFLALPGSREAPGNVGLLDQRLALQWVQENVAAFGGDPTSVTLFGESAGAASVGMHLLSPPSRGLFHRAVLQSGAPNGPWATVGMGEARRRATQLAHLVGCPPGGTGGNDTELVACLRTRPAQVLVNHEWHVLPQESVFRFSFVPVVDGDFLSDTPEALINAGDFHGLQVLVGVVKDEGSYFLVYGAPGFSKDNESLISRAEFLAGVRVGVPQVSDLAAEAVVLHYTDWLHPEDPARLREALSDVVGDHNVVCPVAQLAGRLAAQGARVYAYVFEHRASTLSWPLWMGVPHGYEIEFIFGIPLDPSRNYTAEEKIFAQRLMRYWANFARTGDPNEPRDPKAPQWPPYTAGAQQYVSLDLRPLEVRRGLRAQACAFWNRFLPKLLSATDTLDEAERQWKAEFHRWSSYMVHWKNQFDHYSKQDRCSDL
T1 sequence (P22303 32-614): as above
Chain of AChE in SH-SY5Y cells (P22303 32-614): as above
Chain of AChE in SH-SY5Y spheroids (P22303 32-614): as above
Chain of AChE in neural stem cells (P22303 32-614): as above

Compound	IC50 [1, 9]	IC50 [2, 10]	IC50 [2, 11]	CC-v2 (curve classes) (AChE in SH-SY5Y cells)	IC50 (AChE in SH-SY5Y cells; IC50 (uM))	IC50 (AChE in SH-SY5Y cells; [12])	IC50 [3]	CC-v2 (curve classes) (recombinant human AChE [4])	Efficacy (recombinant human AChE [4])	IC50 (recombinant human AChE [4]; potency (IC50), Enzyme)	CC-v2 (curve classes) (recombinant human AChE [5])	Efficacy (recombinant human AChE [5])	IC50 (recombinant human AChE [6])	IR or R (recombinant human AChE [7])	AC50 (recombinant human AChE [7]; activity_5)	AC50 (recombinant human AChE [7]; activity_10)	AC50 (recombinant human AChE [7]; activity_60)	IC50 (recombinant human AChE [8]; [13])	IC50 [1, 14]	further results
Cc1nc(N(C)C)nc(OC(=O)N(C)C)c1C [Pirimicarb]	7.09 ± 4.92 µM	1.4 ± 0.16 µM	2.47 µM	-1.1	11.2 µM	7.42 ± 2.77 µM	2.84 ± 0.65 µM	-1.1	-85.325	12.7 ± 2.36 µM	-2.2	-73.016	8.21 ± 0.56 µM	R	49.8 µM and 62.7 µM and 22.2 µM	19.8 µM and 44.4 µM and 49.8 µM	19.8 µM and 5.59 µM and 9.93 µM	8.53 ± 0.55 µM	–	IC50 ([1]; read-out: potency (IC50), SH-SY5Y spheroids (48 h)): 15.2 ± 0.99 µM
CCCSP(=O)(OCC)Oc1ccc(Br)cc1Cl (centres unmarked) [Profenofos]	2.57 ± 2.21 µM	0.2 ± 0.09 µM	0.78 µM	-1.1	6.88 µM and 5.46 µM and 7.72 µM	3.71 ± 0.24 µM	1.05 ± 0.14 µM	-1.1	-92.505	3.85 µM	-1.1	-79.632	5.25 ± 0.34 µM	–	10.9 µM and 17.2 µM and 15.3 µM	12.2 µM and 15.3 µM	6.85 µM and 7.69 µM and 13.7 µM	3.43 µM	2.89 ± 0.65 µM	IC50 (recombinant human AChE [4]; IC50 (uM)): 3.87 µM; IC50 (recombinant human AChE [8]; IC50 (uM)): 2.74 µM
CNC(=O)Oc1cc(C)cc(C(C)C)c1 [Promecarb]	1.38 ± 1.23 µM	0.93 ± 0.07 µM	0.66 µM	-1.1	0.633 µM and 0.564 µM	0.88 ± 0.1 µM	1.35 ± 0.18 µM	-1.1	-99.272	0.48 ± 0.12 µM	-1.1	-98.92	0.61 ± 0.08 µM	R	1.98 µM and 1.25 µM	0.885 µM and 1.77 µM	0.703 µM and 0.498 µM and 1.11 µM	0.68 ± 0.11 µM	0.68 ± 0.09 µM	–
CNC(=O)Oc1ccccc1OC(C)C [Propoxur]	3.55 ± 2.59 µM	20.1 ± 4.2 µM	35.8 µM	-1.1	2.24 µM and 2 µM (2×) and 1.59 µM and 1.78 µM	3.05 ± 0.52 µM	17 ± 1.1 µM	-1.1	–	1.55 ± 0.43 µM	-1.1	–	1.91 ± 0.12 µM	R	22.2 µM and 14 µM and 6.27 µM	4.98 µM and 14 µM and 7.03 µM	1.77 µM and 1.11 µM and 2.5 µM	1.76 µM	2.45 ± 0.61 µM	–
CCOC(=O)c1cn2nc(OP(=S)(OCC)OCC)cc2nc1C [Pyrazophos]	29.7 µM	2.46 µM	4.46 µM	-2.1	35.6 µM and 71 µM and 79.6 µM	46.2 µM	16.4 µM	-3	-45.459	49.8 µM	-1.1	-98.116	85.3 ± 5.56 µM	–	–	–	55.9 µM and 62.7 µM	7.89 µM	46.2 µM	–
O=C(c1ccc(OCCN2CCCCC2)cc1)c1c(-c2ccc(O)cc2)sc2cc(O)ccc12 [Raloxifene hydrochloride, reference compound]	1.03 ± 0.78 µM	6.29 ± 0.72 µM	9.85 µM	-1.1 and -2.1	27.5 µM and 25.2 µM and 31.7 µM	4.29 ± 0.59 µM	14.1 ± 1.61 µM	-1.1	–	2.14 ± 0.13 µM	-1.1	–	3.43 ± 0.58 µM	R	1.57 µM and 2.22 µM and 1.11 µM	1.57 µM and 1.4 µM and 3.14 µM	1.25 µM and 1.11 µM and 2.22 µM	3.42 ± 0.58 µM	4.19 ± 0.94 µM	–
C=CC[N+]1([C@H]2C[C@H]3[C@@H]4CC[C@H]5C[C@H](OC(C)=O)[C@@H](N6CCCCC6)C[C@]5(C)[C@H]4CC[C@]3(C)[C@H]2OC(=O)CC)CCCCC1 [Rapacuronium bromide, reference compound]	8.24 µM	3.64 µM	1.37 µM	-2.1	27.5 µM and 30.9 µM and 34.7 µM	16 µM	5.27 µM	-2.2	-53.371	22.6 µM	4	0	26.3 ± 1.71 µM	R	21.7 µM and 19.3 µM	13.7 µM and 21.7 µM and 19.3 µM	21.7 µM and 38.5 µM and 19.3 µM	26.3 µM	22.6 µM	IC50 (recombinant human AChE [4]; IC50 (uM)): 30.9 µM
